According to patent publication US20120309750A1, “5-MEMBERED HETEROCYCLE DERIVATIVES AND MANUFACTURING PROCESS THEREOF” (ILDONG PHARM CO., LTD., priority 2010, published 2012):

Columns and labels:
[1] = target: yeast HSP90 (Saccharomyces cerevisiae, UniProt P02829); test: Hsp90 ATPase assay (malachite green); format: biochemical
Experimental: (§1) For present invention, the ATPase activity of yeast HSP90 was measured using malachite green assay. Formula I compounds for primary antitumoral activity were treated in human colorectal cancer cells (HCT116) showing increased expression levels of HSP90 client protein and cotoxicity IC50 values was measured as a result.

[2] = tested on: human colorectal cancer cells (HCT116); test: Growth inhibition assay (cytotoxicity) in HCT116; format: cell-based; details: HCT-116
Experimental: as §1

yeast HSP90, sequence (P02829 whole entry): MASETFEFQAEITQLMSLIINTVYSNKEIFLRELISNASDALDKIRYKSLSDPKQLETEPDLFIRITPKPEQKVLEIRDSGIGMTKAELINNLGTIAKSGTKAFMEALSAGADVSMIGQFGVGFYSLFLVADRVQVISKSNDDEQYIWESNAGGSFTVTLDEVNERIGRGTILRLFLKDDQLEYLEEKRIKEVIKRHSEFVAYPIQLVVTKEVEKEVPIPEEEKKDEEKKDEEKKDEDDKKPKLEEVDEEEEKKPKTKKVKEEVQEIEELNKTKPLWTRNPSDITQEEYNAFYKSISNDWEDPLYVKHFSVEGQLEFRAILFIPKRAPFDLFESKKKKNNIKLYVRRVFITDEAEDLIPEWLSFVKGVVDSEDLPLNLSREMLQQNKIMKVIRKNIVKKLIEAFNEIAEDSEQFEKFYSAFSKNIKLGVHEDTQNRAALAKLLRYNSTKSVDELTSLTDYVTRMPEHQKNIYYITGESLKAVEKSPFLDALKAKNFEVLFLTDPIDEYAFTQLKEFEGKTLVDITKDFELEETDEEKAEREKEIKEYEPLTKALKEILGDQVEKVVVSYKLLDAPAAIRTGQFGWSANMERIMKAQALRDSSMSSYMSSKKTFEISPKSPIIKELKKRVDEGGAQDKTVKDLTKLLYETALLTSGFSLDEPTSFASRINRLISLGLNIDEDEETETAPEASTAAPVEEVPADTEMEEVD

| IC50 [1] [nM] | Compound | IC50 [2] [nM] |
| --- | --- | --- |
| 500 to 1000 | CCNC(=O)c1noc(-c2cc(C(C)C)c(O)cc2O)c1-c1cc(C(=O)N2CCSCC2)no1 [Compound I-50, 5-(2,4-Dihydroxy-5-isopropylphenyl)-N-ethyl-3′-(thiomorpholine-4-carbonyl)-4,5′-biisoxazole-3-carboxamide] | < 500 |
| < 500 | CCNC(=O)c1noc(-c2cc(C(C)C)c(O)cc2O)c1-c1cc(C(OC)OC)no1 [Compound I-51, 5-(2,4-Dihydroxy-5-isopropylphenyl)-3′-(dimethoxymethyl)-N-ethyl-4,5′-biisoxazole-3-carboxamide] | < 500 |
| < 500 | CCNC(=O)c1noc(-c2cc(C(C)C)c(O)cc2O)c1-c1cc(/C=N/OC)no1 [Compound I-52, 5-(2,4-Dihydroxy-5-isopropylphenyl)-N-ethyl-3′-((methoxyimino)methyl)-4,5′-biisoxazole-3-carboxamide] | < 500 |
| 500 to 1000 | CCNC(=O)c1noc(-c2cc(C(C)C)c(O)cc2O)c1-c1cc(/C=N/O)no1 [Compound I-53, 5-(2,4-Dihydroxy-5-isopropylphenyl)-N-ethyl-3′-((hydroxyimino)methyl)-4,5′-biisoxazole-3-carboxamide] | < 500 |
| 500 to 1000 | C=CCO/N=C/c1cc(-c2c(C(=O)NCC)noc2-c2cc(C(C)C)c(O)cc2O)on1 [Compound I-54, 3′-((Allyloxyimino)methyl)-5-(2,4-dihydroxy-5-isopropylphenyl)-N-ethyl-4,5′-biisoxazole-3-carboxamide] | < 500 |
| 500 to 1000 | CCNC(=O)c1noc(-c2cc(C(C)C)c(O)cc2O)c1-c1cc(/C=N/OCC)no1 [Compound I-55, 5-(2,4-Dihydroxy-5-isopropylphenyl)-3′-((ethoxyimino)methyl)-N-ethyl-4,5′-biisoxazole-3-carboxamide] | < 500 |
| < 500 | CCNC(=O)c1noc(-c2cc(C(C)C)c(O)cc2O)c1-c1cc(C(=O)NC)no1 [Compound I-56, 5-(2,4-Dihydroxy-5-isopropylphenyl)-N^3-ethyl-N^3′-methyl-4,5′-biisoxazole-3,3′-dicarboxamide] | < 500 |
| 500 to 1000 | CCNC(=O)c1noc(-c2cc(C(C)C)c(O)cc2O)c1-c1noc(C(F)(F)F)n1 [Compound I-57, 5-(2,4-Dihydroxy-5-isopropylphenyl)-N-ethyl-4-(5-(trifluoromethyl)-1,2,4-oxadiazol-3-yl)isoxazole-3-carboxamide] | < 500 |
| 500 to 1000 | CCNC(=O)c1noc(-c2cc(C(C)C)c(O)cc2O)c1-c1noc(C(=O)OC)n1 [Compound I-58, Methyl 3-(5-(2,4-dihydroxy-5-isopropylphenyl)-3-(ethylcarbamoyl)isoxazol-4-yl)-1,2,4-oxadiazole-5-carboxylate] | > 1000 |
| 500 to 1000 | CCNC(=O)c1nc(-c2c(C(=O)NCC)noc2-c2cc(C(C)C)c(O)cc2O)no1 [Compound I-59, 3-(5-(2,4-Dihydroxy-5-isopropylphenyl)-3-(ethylcarbamoyl)isoxazol-4-yl)-N-ethyl-1,2,4-oxadiazole-5-carboxamide] | < 500 |
| < 500 | CCNC(=O)c1noc(-c2cc(C(C)C)c(O)cc2O)c1-c1noc(-c2ccccc2)n1 [Compound I-61, 5-(2,4-Dihydroxy-5-isopropylphenyl)-N-ethyl-4-(5-phenyl-1,2,4-oxadiazol-3-yl) isoxazole-3-carboxamide] | < 500 |
| < 500 | CCNC(=O)c1noc(-c2cc(C(C)C)c(O)cc2O)c1-c1noc(CC)n1 [Compound I-62, 5-(2,4-Dihydroxy-5-isopropylphenyl)-N-ethyl-4-(5-ethyl-1,2,4-oxadiazol-3-yl)isoxazole-3-carboxamide] | < 500 |
| < 500 | CCNC(=O)c1noc(-c2cc(C(C)C)c(O)cc2O)c1-c1noc(-c2ccco2)n1 [Compound I-63, 5-(2,4-Dihydroxy-5-isopropylphenyl)-N-ethyl-4-(5-(furan-2-yl)-1,2,4-oxadiazol-3-yl)isoxazole-3-carboxamide] | < 500 |
| < 500 | CCNC(=O)c1noc(-c2cc(C(C)C)c(O)cc2O)c1-c1noc(C(=O)N(C)C)n1 [Compound I-64, 3-(5-(2,4-Dihydroxy-5-isopropylphenyl)-3-(ethylcarbamoyl)isoxazol-4-yl)-N,N-dimethyl-1,2,4-oxadiazole-5-carboxamide] | < 500 |
| < 500 | CCNC(=O)c1noc(-c2cc(C(C)C)c(O)cc2O)c1-c1noc(C(C)C)n1 [Compound I-65, 5-(2,4-Dihydroxy-5-isopropylphenyl)-N-ethyl-4-(5-isopropyl-1,2,4-oxadiazol-3-yl)isoxazole-3-carboxamide] | < 500 |
| 500 to 1000 | CCNC(=O)c1noc(-c2cc(C(C)C)c(O)cc2O)c1-c1ncon1 [Compound I-66, 5-(2,4-Dihydroxy-5-isopropylphenyl)-N-ethyl-4-(1,2,4-oxadiazol-3-yl)isoxazole-3-carboxamide] | < 500 |

| IC50 [1] [nM] | Compound | IC50 [2] [nM] |
| --- | --- | --- |
| 500 to 1000 | CCNC(=O)c1noc(-c2cc(C(C)C)c(O)cc2O)c1-c1noc(C(=O)N2CCOCC2)n1 [Compound I-67, 5-(2,4-Dihydroxy-5-isopropylphenyl)-N-ethyl-4-(5-(morpholine-4-carbonyl)-1,2,4-oxadiazol-3-yl)isoxazole-3-carboxamide] | 500 to 1000 |
| 500 to 1000 | CCNC(=O)c1noc(-c2cc(C(C)C)c(O)cc2O)c1-c1noc(C(=O)N2CCCC2)n1 [Compound I-68, 5-(2,4-Dihydroxy-5-isopropylphenyl)-N-ethyl-4-(5-(pyrrolidine-1-carbonyl)-1,2,4-oxadiazol-3-yl)isoxazole-3-carboxamide] | < 500 |
| 500 to 1000 | CCNC(=O)c1noc(-c2cc(C(C)C)c(O)cc2O)c1-c1noc(N2CCCC2)n1 [Compound I-69, 5-(2,4-Dihydroxy-5-isopropylphenyl)-N-ethyl-4-(5-(pyrrolidin-1-yl)-1,2,4-oxadiazol-3-yl)isoxazole-3-carboxamide] | < 500 |
| 500 to 1000 | CCNC(=O)c1noc(-c2cc(C(C)C)c(O)cc2O)c1-c1noc(C(Cl)(Cl)Cl)n1 [Compound I-70, 5-(2,4-Dihydroxy-5-isopropylphenyl)-N-ethyl-4-(5-(trichloromethyl)-1,2,4-oxadiazol-3-yl)isoxazole-3-carboxamide] | 500 to 1000 |
| < 500 | CCNC(=O)c1noc(-c2cc(C(C)C)c(O)cc2O)c1-c1noc(N2CCCCC2)n1 [Compound I-71, 5-(2,4-Dihydroxy-5-isopropylphenyl)-N-ethyl-4-(5-(piperidin-1-yl)-1,2,4-oxadiazol-3-yl)isoxazole-3-carboxamide] | < 500 |
| < 500 | CCNC(=O)c1noc(-c2cc(C(C)C)c(O)cc2O)c1-c1noc(N(C)C)n1 [Compound I-72, 5-(2,4-Dihydroxy-5-isopropylphenyl)-4-(5-(dimethylamino)-1,2,4-oxadiazol-3-yl)-N-ethylisoxazole-3-carboxamide] | < 500 |
| 500 to 1000 | CCNC(=O)c1noc(-c2cc(C(C)C)c(O)cc2O)c1-c1noc(N2CCOCC2)n1 [Compound I-73, 5-(2,4-Dihydroxy-5-isopropylphenyl)-N-ethyl-4-(5-morpholino-1,2,4-oxadiazol-3-yl)isoxazole-3-carboxamide] | < 500 |
| 500 to 1000 | CCNC(=O)c1noc(-c2cc(C(C)C)c(O)cc2O)c1-c1noc(C(=O)N(CC)CC)n1 [Compound I-74, 3-(5-(2,4-Dihydroxy-5-isopropylphenyl)-3-(ethylcarbamoyl)isoxazol-4-yl)-N,N-diethyl-1,2,4-oxadiazole-5-carboxamide] | 500 to 1000 |
| < 500 | CCNC(=O)c1noc(-c2cc(C(C)C)c(O)cc2O)c1-c1noc(COC)n1 [Compound I-75, 5-(2,4-Dihydroxy-5-isopropylphenyl)-N-ethyl-4-(5-(methoxymethyl)-1,2,4-oxadiazol-3-yl)isoxazole-3-carboxamide] | < 500 |
| < 500 | CCNC(=O)c1noc(-c2cc(C(C)C)c(O)cc2O)c1-c1noc(N(CC)CC)n1 [Compound I-76, 4-(5-(Diethylamino)-1,2,4-oxadiazol-3-yl)-5-(2,4-dihydroxy-5-isopropylphenyl)-N-ethylisoxazole-3-carboxamide] | < 500 |
| 500 to 1000 | CCNC(=O)c1noc(-c2cc(C(C)C)c(O)cc2O)c1-c1noc(-c2cccs2)n1 [Compound I-77, 5-(2,4-Dihydroxy-5-isopropylphenyl)-N-ethyl-4-(5-(thiophen-2-yl)-1,2,4-oxadiazol-3-yl)isoxazole-3-carboxamide] | < 500 |
| < 500 | CCNC(=O)c1noc(-c2cc(C(C)C)c(O)cc2O)c1-c1noc(N)n1 [Compound I-78, 4-(5-Amino-1,2,4-oxadiazol-3-yl)-5-(2,4-dihydroxy-5-isopropylphenyl)-N-ethylisoxazole-3-carboxamide] | < 500 |
| 500 to 1000 | CCNC(=O)c1noc(-c2cc(C(C)C)c(O)cc2O)c1-c1noc(NC)n1 [Compound I-79, 5-(2,4-Dihydroxy-5-isopropylphenyl)-N-ethyl-4-(5-(methylamino)-1,2,4-oxadiazol-3-yl)isoxazole-3-carboxamide] | < 500 |
| > 1000 | CCNC(=O)c1noc(-c2cc(C(C)C)c(O)cc2O)c1-c1noc(O)n1 [Compound I-80, 5-(2,4-Dihydroxy-5-isopropylphenyl)-N-ethyl-4-(5-hydroxy-1,2,4-oxadiazol-3-yl)isoxazole-3-carboxamide] | > 1000 |
| 500 to 1000 | CCNC(=O)c1noc(-c2cc(C(C)C)c(O)cc2O)c1-c1noc(CO)n1 [Compound I-81, 5-(2,4-Dihydroxy-5-isopropylphenyl)-N-ethyl-4-(5-(hydroxymethyl)-1,2,4-oxadiazol-3-yl)isoxazole-3-carboxamide] | < 500 |
